According to article PMC10536063 (ACS Omega, 2023):

What was measured:
[1] = system: MCF-10A (normal breast) cells; test: MTT cytotoxicity bioassay against normal MCF-10A cells; format: cell-based; details: for IC50: Homo sapiens, MCF-10A, 48 h, read-out: IC50 ± SD, MCF-10A; for cytotoxicity versus normal MCF-10A cells (in words): MTT
[2] = system: MCF-7 (breast cancer cells); test: MTT cytotoxicity bioassay against MCF-7; format: cell-based, human; details: read-out: IC50 ± SD, MCF-7, 48 h, mean ± SD, n = 3
CDK-2 kinase = CDK-2 kinase (Homo sapiens, UniProt P24941); test: CDK-2 luminescence kinase inhibitory assay; format: biochemical
EGFR kinase = EGFR kinase (Homo sapiens, UniProt P00533); test: EGFR-TK kinase inhibitory assay; format: biochemical
Sequence of EGFR kinase (P00533 25-1210): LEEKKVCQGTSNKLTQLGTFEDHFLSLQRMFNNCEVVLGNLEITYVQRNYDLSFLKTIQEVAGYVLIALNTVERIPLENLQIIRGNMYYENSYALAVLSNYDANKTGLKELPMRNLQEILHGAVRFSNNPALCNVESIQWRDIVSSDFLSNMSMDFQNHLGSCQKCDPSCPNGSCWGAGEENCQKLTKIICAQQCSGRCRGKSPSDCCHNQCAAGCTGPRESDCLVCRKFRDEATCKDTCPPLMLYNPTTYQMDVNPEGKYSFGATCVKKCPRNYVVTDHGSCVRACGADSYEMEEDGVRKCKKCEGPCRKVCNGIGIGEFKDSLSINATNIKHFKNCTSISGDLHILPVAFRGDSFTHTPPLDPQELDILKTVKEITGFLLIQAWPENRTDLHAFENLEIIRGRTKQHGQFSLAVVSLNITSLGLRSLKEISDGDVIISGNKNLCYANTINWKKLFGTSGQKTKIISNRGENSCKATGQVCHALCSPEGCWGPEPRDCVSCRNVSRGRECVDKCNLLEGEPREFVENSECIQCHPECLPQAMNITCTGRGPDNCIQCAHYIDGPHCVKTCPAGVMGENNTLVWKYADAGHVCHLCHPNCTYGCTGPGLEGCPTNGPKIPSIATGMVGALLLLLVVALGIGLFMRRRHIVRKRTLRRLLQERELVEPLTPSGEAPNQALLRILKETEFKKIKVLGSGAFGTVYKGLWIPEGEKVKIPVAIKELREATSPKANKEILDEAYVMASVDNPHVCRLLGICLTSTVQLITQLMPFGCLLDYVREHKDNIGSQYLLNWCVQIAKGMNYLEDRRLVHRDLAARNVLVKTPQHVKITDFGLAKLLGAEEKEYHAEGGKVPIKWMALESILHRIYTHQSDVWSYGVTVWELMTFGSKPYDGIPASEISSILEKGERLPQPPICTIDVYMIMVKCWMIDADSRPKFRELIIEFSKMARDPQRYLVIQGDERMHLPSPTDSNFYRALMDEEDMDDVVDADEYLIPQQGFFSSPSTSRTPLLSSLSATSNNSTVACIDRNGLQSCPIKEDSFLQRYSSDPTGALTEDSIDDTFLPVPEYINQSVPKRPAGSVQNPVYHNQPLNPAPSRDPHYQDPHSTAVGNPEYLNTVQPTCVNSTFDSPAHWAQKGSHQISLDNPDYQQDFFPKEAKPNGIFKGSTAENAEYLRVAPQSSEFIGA

Row | IC50 (CDK-2 kinase) | IC50 (EGFR kinase) | Structure (SMILES) | IC50 [1] | IC50 [2] | cytotoxicity versus normal MCF-10A cells (in words) [1]
1 |  |  | O=C(c1ccc2ccccc2c1)c1cn(-c2ccccc2)nc1C(=O)CBr [Compound 2, 3-Bromoacetyl-4-(2-naphthoyl)-1-phenyl-1H-pyrazole] | 37.5 ± 1.9 µM |  | 
2 |  |  | O=C(c1ccc2ccccc2c1)c1cn(-c2ccccc2)nc1C1=Nn2cnnc2SC1 [Compound 4a, 6-(4-(2-Naphthoyl)-1-phenyl-1H-pyrazol-3-yl)-7H-[1,2,4]triazolo[3,4-b][1,3,4]thiadiazine] | ≥ 50 µM |  | 
3 | 0.114 ± 0.0029 µM | 0.0717 ± 0.0021 µM | O=C(c1ccc2ccccc2c1)c1cn(-c2ccccc2)nc1C1=Nn2c(nnc2-c2ccccc2)SC1 [Compound 4b, 3-Phenyl-6-(4-(2-naphthoyl)-1-phenyl-1H-pyrazol-3-yl)-7H-[1,2,4]triazolo[3,4-b][1,3,4]-thiadiazine] | ≥ 50 µM | 3.16 ± 0.29 µM | safe
4 | 0.165 ± 0.00314 µM | 0.0896 ± 0.0024 µM | O=C(c1ccc2ccccc2c1)c1cn(-c2ccccc2)nc1C1=Nn2c(S)nnc2SC1 [Compound 4c, 6-(4-(2-Naphthoyl)-1-phenyl-1H-pyrazol-3-yl)-7H-[1,2,4]triazolo[3,4-b][1,3,4]thiadiazin-3-thiol] | 46.7 ± 1.7 µM |  | safe
5 |  |  | O=C(c1ccc2ccccc2c1)c1cn(-c2ccccc2)nc1C1=Nn2c(SCCSc3nnc4n3N=C(c3nn(-c5ccccc5)cc3C(=O)c3ccc5ccccc5c3)CS4)nnc2SC1 [Compound 8a, 1,2-Bis((6-(4-(2-naphthoyl)-1-phenyl-1H-pyrazol-3-yl))-7H-[1,2,4]triazolo[3,4-b][1,3,4]-thiadiazin-3-ylthio)ethane] | 38.9 ± 0.89 µM |  | 
6 |  |  | O=C(c1ccc2ccccc2c1)c1cn(-c2ccccc2)nc1C1=Nn2c(SCCCSc3nnc4n3N=C(c3nn(-c5ccccc5)cc3C(=O)c3ccc5ccccc5c3)CS4)nnc2SC1 [Compound 8b, 1,3-Bis((6-(4-(2-naphthoyl)-1-phenyl-1H-pyrazol-3-yl))-7H-[1,2,4]triazolo[3,4-b][1,3,4]-thiadiazin-3-ylthio)propane] | 29.6 ± 0.8 µM |  | 
7 |  |  | O=C(c1ccc2ccccc2c1)c1cn(-c2ccccc2)nc1C1=Nn2c(nnc2SCc2ccccc2CSc2nnc3n2N=C(c2nn(-c4ccccc4)cc2C(=O)c2ccc4ccccc4c2)CS3)SC1 [Compound 10, 1,2-Bis((6-(4-(2-naphthoyl)-1-phenyl-1H-pyrazol-3-yl))-7H-[1,2,4]triazolo[3,4-b][1,3,4]-thiadiazin-3-ylthiomethyl)benzene] | 31.2 ± 0.9 µM |  | 
8 |  |  | C#Cc1cccc(Nc2ncnc3cc(OCCOC)c(OCCOC)cc23)c1 [Erlotinib, reference compound] | ≥ 50 µM |  | 
